The text below walks through data of paper PMC10963751, “Solar-driven sugar production directly from CO2 via a customizable electrocatalytic–biocatalytic flow system” (Nature Communications, 2024).

This assay deals with T1, BmfaldDH (Burkholderia multivorans, UniProt A0A0H3KP42).
T1 construct: gene fdhA2; pET28a, E. coli BL21(DE3), Ni-NTA purified (His-tagged)
T1 sequence (A0A0H3KP42 1-398): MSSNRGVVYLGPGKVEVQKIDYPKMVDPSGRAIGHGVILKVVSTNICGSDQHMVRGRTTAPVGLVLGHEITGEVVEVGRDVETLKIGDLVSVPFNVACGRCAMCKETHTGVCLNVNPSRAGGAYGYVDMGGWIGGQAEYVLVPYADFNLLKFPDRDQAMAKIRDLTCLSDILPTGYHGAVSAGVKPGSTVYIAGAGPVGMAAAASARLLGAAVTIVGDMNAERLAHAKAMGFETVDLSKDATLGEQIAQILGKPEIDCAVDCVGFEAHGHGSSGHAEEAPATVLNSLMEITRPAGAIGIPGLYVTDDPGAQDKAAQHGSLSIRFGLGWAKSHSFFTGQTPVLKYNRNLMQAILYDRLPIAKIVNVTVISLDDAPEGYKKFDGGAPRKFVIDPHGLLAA
The assay is described as follows: isothermal titration calorimetry. Format: binding.

For `O=CO` [formate], the thermodynamic data result is on record as “isothermal titration calorimetry (ITC) to measure the thermodynamic data”.

As for `NC(=O)C1=CN([C@@H]2O[C@H](COP(=O)(O)OP(=O)(O)OC[C@H]3O[C@@H](n4cnc5c(N)ncnc54)[C@H](O)[C@@H]3O)[C@@H](O)[C@H]2O)C=CC1` [NADH], the thermodynamic data result was “evaluating the interaction of BmfaldDH with formate and NADH”.
